This passage reports GI50 and IC50 results from patent USRE46511E1, “Fused pyrimidine derivatives for inhibition of tyrosine kinase activity” (HANMI SCIENCE CO., LTD., priority 2010, dated 2017).

As a reminder, the pIC50 is the negative decadic logarithm of the IC50, by convention in mol/L. A high value points to a low IC50.

SMILES strings stand for the structures. pIC50: −log10 of the molar value. Some results are limits rather than exact numbers.

For assay [1], the system named is HCC827 (EGFR DelE746_A750). As to the kind of experiment: Inhibition test for growth of cancer cell expressing EGFR (SRB), HCC827.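 Also: cells in 96-well plates exposed to tenfold serial dilutions from 100 µM, fixed with trichloroacetic acid, SRB-stained, absorbance read at 540 nm, DMSO under 1%.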 The assay is classed as cell-based. The settings on record: Homo sapiens, HCC827, 72 h, HCC827 cells, 72 hours, SRB; read-out: GI50 HCC827 EGFR DelE746_A750.
The test system of assay [2] is NCI-H1975 (EGFR L858R/T790M). As to the kind of experiment: Inhibition test for growth of cancer cell expressing EGFR (MTS), NCI-H1975. The assay is classed as cell-based. The settings on record: Homo sapiens; NCI-H1975 cells, 48 hours, MTS; read-out: GI50 NCI-H1975 EGFR L858R/T790M.
Assay [3] has as its target T1, EGFR WT (Homo sapiens, UniProt P00533).
T1 construct: purchased Invitrogen
In words: z-lyte kinase assay, EGFR WT. The assay is classed as biochemical.

The target of assay [4] is T2, EGFR L858R/T790M (Homo sapiens, UniProt P00533, L858R/T790M).
T2 construct: purchased Invitrogen
As to the kind of experiment: z-lyte kinase assay, EGFR L858R/T790M. The assay is classed as biochemical.

Assay [5] concerns A431 (EGFR WT). In words: Inhibition test for growth of cancer cell expressing EGFR (SRB), A431.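 Also: cells in 96-well plates exposed to tenfold serial dilutions from 100 µM down to 10^−6 µM, DMSO under 1%, SRB staining read as absorbance at 540 nm.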 The assay is classed as cell-based. The settings on record: Homo sapiens, A-431; A431 cells, 72 hours, SRB; read-out: GI50 A431 EGFR WT.
Method: A431 cell line was incubated in a high-glucose DMEM (Dulbecco's Modified Eagle's Medium) supplemented with 10% fetal bovine serum (FBS) and 1% penicillin/streptomycin (Gibco BRL), and HCC827 and NCI-H1975 cell lines were incubated in an RPMI medium supplemented with 10% FBS, 1% penicillin/streptomycin and 1% sodium pyruvate.
The cancer cell lines stored in a liquid nitrogen tank were each quickly thawed at 37° C., and centrifuged to remove the medium. The resulting cell pellet was mixed with a culture medium, incubated in a culture flask at 37° C. under 5% CO2 for 2 to 3 days, and the medium was removed. The remaining cells were washed with DPBS (Dulbecco's Phosphate Buffered Saline) and separated from the flask by using Tripsin-EDTA. […] 100 μl of the diluted cell solution was added to each well of a 96-well plate, and incubated at 37° C. under 5% CO2 for 1 day.
In case that the test compound was not soluble in DMSO, 1% HCl was added thereto and treated in a 40° C. water bath for 30 mins until a complete dissolution was attained. The DMSO solution containing test compound was diluted with a culture medium to a final concentration of 100 μM, and then diluted 10 times serially to 10^−6 μM (a final concentration of DMSO was less than 1%).
The medium was removed from each well of the 96-well plate. And then, 100 μl of a test compound solution was added to each well holding the cultured cells, and the plate was incubated at 37° C. under 5% CO2 for 72 hours (except that NCI-H1975 cells were incubated for 48 hours). After removing the medium from the plate, 50 μA of 10% trichloroacetic acid was added to each well, and the plate was kept at 4° C. for 1 hour to fix the cells to the bottom of the plate. The added 10% trichloroacetic acid solution was removed from each well, the plate was dried, 100 μA of an SRB (Sulforhodamine-B) dye solution at a concentration of 0.4% dissolved in 1% acetic acid was added thereto, and the resulting mixture was reacted for 10 mins at room temperature. After removing the dye solution, the plate was washed with water, and well dried. When the dye solution was not effectively removed by water, 1% acetic acid was used. 150 μA of 10 mM trisma base was added to each well, and the absorbance at 540 nm wavelength was determined with a microplate reader.
Assay [6] concerns the target T3, BTK (Homo sapiens, UniProt Q06187).
T3 construct: purchased Invitrogen
As to the kind of experiment: z-lyte kinase assay, BTK. The assay is classed as biochemical. As for the experimental part:
(§1) The inhibiting activities of the inventive compounds obtained in Examples 1 to 237 against EGFR WT and EGFR L858R/T790M kinase were determined using z-lyte kinase assay kit (Invitrogen, PV3191). The kinases used in the test were purchased from Invitrogen.
(§2) The compounds obtained in Examples 1 to 237 were each prepared to 10 mM DMSO solution, and a solution containing 4% DMSO were prepared therefrom and diluted to a concentration of 1 μM to 0.0001 μM. […] The test was conducted in a 384 well polystyrene flat-bottomed plates. 5 μl of the diluted solution of each compound was added to each well, and 10 μl of a mixture of peptide substrate and kinase in a suitable concentration and 5 μl of 5˜300 μM ATP solution were successively added thereto and the plate was incubated in a stirrer at room temperature for 60 minutes. After 60 mins, 10 μl of coloring reagent was added to the resulting mixture to initiate a fluorescence reaction of peptide substrate and a terminating solution was added thereto for terminating the reaction. A fluorescence value of each well was determined with a fluorescence meter (Molecular Device) at 400 nm (excitation filter) and 520 nm (emission filter). […] The calculation of IC50 and the result analysis were carried out by using Microsoft Excel.
(§3) The inhibiting activities of the inventive compounds obtained in Examples 1 to 237 against BTK and JAK3 kinases were determined, respectively. The procedure of Test Example 2 was repeated except that BTK and JAK3 kinases (Invitrogen) were employed instead of using the EGFR kinase.

Assay [7] concerns the target T4, JAK3 (Homo sapiens, UniProt P52333).
T4 construct: purchased Invitrogen
T4 sequence (P52333 1-1124): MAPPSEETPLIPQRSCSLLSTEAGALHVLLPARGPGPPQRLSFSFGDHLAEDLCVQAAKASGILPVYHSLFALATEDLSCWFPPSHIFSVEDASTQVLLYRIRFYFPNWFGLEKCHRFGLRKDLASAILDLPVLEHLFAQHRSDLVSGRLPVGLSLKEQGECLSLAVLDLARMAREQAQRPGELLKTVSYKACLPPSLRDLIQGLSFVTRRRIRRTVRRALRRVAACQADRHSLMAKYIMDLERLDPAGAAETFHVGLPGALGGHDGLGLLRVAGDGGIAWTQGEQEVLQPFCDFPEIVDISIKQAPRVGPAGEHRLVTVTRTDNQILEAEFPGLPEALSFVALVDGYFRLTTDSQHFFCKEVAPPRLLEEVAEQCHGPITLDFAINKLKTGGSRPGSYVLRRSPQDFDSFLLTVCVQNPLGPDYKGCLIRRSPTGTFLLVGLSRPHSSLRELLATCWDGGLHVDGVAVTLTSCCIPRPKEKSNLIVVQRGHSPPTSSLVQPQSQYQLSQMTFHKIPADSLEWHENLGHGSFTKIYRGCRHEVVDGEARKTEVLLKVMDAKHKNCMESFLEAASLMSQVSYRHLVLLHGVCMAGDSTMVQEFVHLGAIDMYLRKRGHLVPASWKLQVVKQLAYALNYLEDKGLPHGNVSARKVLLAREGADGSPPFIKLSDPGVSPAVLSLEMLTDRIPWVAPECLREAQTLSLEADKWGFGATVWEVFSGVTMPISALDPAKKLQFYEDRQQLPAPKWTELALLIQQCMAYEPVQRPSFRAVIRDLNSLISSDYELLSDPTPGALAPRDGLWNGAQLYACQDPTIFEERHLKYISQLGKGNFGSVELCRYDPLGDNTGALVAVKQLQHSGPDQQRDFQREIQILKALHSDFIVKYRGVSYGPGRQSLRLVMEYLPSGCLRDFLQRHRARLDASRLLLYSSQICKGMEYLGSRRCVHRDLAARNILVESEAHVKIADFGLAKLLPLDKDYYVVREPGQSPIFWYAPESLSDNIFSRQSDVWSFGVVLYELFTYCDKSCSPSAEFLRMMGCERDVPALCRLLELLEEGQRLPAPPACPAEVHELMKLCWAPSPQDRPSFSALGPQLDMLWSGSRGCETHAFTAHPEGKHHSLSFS
In words: z-lyte kinase assay, JAK3. The assay is classed as biochemical. As to the method:
as §1, §2, §3

T3 sequence (Q06187 whole entry): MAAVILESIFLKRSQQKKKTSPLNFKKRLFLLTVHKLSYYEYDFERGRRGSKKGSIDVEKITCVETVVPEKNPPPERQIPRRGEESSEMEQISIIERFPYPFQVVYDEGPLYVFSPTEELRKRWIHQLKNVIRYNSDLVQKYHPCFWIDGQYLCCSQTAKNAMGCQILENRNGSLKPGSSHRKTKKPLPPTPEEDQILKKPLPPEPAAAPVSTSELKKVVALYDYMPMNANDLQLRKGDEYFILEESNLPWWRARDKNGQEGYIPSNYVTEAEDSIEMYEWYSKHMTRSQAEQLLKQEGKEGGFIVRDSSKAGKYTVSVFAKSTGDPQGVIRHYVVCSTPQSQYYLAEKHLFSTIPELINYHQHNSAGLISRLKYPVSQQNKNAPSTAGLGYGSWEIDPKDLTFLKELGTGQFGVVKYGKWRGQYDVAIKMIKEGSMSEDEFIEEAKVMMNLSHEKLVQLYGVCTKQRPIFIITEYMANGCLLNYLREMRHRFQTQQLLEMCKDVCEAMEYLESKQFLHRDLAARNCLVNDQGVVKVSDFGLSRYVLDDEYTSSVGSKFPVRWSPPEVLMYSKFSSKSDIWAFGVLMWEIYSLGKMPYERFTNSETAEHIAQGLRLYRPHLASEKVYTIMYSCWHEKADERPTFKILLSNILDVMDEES
T1 sequence (P00533 25-1210): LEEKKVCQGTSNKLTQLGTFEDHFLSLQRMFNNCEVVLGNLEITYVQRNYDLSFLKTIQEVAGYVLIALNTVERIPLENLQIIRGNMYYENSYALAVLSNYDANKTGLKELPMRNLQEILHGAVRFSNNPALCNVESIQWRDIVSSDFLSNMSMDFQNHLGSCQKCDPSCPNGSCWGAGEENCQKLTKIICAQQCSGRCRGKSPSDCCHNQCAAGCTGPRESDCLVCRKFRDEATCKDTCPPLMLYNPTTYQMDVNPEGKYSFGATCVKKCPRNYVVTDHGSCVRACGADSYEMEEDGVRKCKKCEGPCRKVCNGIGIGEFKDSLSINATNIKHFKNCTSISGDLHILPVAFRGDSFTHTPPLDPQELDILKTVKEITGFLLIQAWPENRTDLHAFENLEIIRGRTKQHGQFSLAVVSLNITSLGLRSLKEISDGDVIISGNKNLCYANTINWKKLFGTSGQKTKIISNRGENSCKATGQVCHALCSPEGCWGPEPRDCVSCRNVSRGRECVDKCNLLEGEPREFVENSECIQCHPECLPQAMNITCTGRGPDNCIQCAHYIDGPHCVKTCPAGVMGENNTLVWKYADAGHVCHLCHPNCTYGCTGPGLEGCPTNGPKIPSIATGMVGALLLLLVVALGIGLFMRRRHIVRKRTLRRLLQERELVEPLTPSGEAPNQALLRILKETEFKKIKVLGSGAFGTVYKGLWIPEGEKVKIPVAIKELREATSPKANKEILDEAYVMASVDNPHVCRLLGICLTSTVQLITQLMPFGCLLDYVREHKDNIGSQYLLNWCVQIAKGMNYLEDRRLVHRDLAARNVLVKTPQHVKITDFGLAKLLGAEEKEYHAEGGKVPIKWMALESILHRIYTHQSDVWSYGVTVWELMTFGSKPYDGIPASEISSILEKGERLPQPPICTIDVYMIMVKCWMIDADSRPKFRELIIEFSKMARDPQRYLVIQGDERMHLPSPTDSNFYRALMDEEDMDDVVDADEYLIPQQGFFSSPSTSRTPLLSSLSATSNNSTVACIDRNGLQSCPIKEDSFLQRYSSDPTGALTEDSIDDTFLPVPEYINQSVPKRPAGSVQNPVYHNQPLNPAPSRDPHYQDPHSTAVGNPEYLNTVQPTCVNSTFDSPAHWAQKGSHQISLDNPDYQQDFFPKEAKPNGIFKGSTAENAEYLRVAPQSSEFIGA
T2 sequence (P00533 25-1210 T790M/L858R): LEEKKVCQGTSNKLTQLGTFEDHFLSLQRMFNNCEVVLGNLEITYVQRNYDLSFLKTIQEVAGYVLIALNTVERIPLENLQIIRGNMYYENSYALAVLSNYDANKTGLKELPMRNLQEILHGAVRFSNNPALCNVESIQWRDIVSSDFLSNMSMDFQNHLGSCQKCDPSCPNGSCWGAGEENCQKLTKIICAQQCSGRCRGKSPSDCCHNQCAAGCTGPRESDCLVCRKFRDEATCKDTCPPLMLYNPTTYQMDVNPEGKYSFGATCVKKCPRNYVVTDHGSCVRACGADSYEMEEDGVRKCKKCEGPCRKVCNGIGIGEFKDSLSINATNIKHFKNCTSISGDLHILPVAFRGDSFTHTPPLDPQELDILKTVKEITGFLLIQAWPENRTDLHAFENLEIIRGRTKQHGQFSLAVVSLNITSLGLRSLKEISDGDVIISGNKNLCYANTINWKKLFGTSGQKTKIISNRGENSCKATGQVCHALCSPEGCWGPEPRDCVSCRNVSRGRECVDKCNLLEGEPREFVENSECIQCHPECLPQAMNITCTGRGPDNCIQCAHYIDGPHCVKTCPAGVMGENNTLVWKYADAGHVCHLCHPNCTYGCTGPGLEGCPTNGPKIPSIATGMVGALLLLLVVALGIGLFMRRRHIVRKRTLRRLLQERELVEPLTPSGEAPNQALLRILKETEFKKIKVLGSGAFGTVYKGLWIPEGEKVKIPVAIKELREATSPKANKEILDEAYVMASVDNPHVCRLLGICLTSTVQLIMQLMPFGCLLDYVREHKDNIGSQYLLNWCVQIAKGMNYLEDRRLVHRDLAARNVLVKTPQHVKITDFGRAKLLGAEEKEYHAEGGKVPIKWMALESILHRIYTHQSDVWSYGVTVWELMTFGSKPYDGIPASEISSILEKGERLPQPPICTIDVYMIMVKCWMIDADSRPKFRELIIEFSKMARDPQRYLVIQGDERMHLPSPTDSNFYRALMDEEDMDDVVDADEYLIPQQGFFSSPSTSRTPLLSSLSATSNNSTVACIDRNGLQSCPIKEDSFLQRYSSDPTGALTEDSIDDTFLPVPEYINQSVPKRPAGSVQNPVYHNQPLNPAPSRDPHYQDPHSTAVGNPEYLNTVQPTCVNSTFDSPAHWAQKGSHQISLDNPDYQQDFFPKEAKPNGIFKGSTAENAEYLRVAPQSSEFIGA

As for `C=CC(=O)Nc1cccc(Oc2nc(Nc3ccc(C4CCCN(C)C4)cc3OC)nc3ccsc23)c1` (stereo not drawn) [Example 115], the GI50 in assay [1] and in assay [2] was below 50 nM in each case. The pIC50 in assay [3] was below 6.00; in assay [4] it was above 7.30.

Take `C=CC(=O)Nc1cccc(Nc2nc(Nc3ccc(N4CCN(C)CC4)c(F)c3)nc3ccsc23)c1` [Example 215]: the GI50 in assay [1] and in assay [2] was below 50 nM throughout. Also, the pIC50 in assay [3] is below 6.00; in assay [4], above 7.30.

On to `C=CC(=O)Nc1cccc(Nc2nc(Nc3ccc(N4CCN(C)CC4)cc3)nc3ccsc23)c1` [Example 206, N-(3-(2-(4-(4-methylpiperazin-1-yl)phenylamino)thieno[3,2-d]pyrimidin-4-ylamino)phenyl)acrylamide], for which the GI50 was below 50 nM in assay [1], below 50 nM in assay [2] and above 1000 nM in assay [5]. Also, the pIC50 in assay [3] was 6.00 to 7.00; in assay [4] it was above 7.30.

For `C=CC(=O)Nc1cccc(Oc2nc(Nc3ccc(CN(C)C)cc3)nc3ccsc23)c1` [Example 173], the GI50 in assay [1] is below 50 nM; in assay [2], below 50 nM; in assay [5], 100 to 1000 nM. Besides, the pIC50 in assay [6] and in assay [7] was at least 7.30 in each case.

Consider `C=CC(=O)Nc1cccc(Oc2nc(Nc3ccc(N4CCN(C)CC4)cc3)nc3ccoc23)c1` [Example 228, N-(3-((2-((4-(4-methylpiperazin-1-yl)phenyl)amino)furo[3,2-d]pyrimidin-4-yl)oxy)phenyl)acrylamide], for which the GI50 was below 50 nM in assay [1], below 50 nM in assay [2] and 100 to 1000 nM in assay [5]. The pIC50 in assay [6] and in assay [7] was at least 7.30 throughout.

For `C=CC(=O)Nc1cccc(Oc2nc(Nc3ccc(C(=O)NC4CCN(C)CC4)cc3)nc3ccsc23)c1` [Example 82], the GI50 is below 50 nM in assay [1], below 50 nM in assay [2] and above 1000 nM in assay [5]. For the same molecule, the pIC50 in assay [6] and in assay [7] was at least 7.30 in each case.

Take `C=CC(=O)Nc1cccc(Oc2nc(Nc3ccc(NCCN(C)C)c(F)c3)nc3ccsc23)c1` [Example 199]: the GI50 was below 50 nM in assay [1], below 50 nM in assay [2] and above 1000 nM in assay [5]. Moreover, the pIC50 in assay [6] and in assay [7] was at least 7.30 throughout.

For the molecule `C=CC(=O)Nc1cccc(Oc2nc(Nc3ccc(N4CCN(C)CC4)c(F)c3)nc3ccsc23)c1` [Example 3], the GI50 was below 50 nM in assay [1], below 50 nM in assay [2] and above 1000 nM in assay [5]. Further, the negative-log IC50 (pIC50) is at least 7.30 in assay [6] and 7.00 to 7.30 in assay [7].

Take `C=CC(=O)Nc1cccc(Oc2nc(Nc3ccc(CN4CCC(N5CCOCC5)CC4)cc3)nc3ccsc23)c1` [Example 181]: the GI50 in assay [1] was below 50 nM; in assay [2] it was below 50 nM; in assay [5], above 1000 nM. The pIC50 in assay [6] and in assay [7] was at least 7.30 throughout.

Turning to `C=CC(=O)Nc1cccc(Oc2nc(Nc3ccc(N4CCC(N5CCN(CC)CC5)CC4)cc3)nc3ccsc23)c1` [Example 50], the figures for the GI50 in assay [1], in assay [2] and in assay [5] were below 50 nM, 100 to 1000 nM and above 1000 nM, respectively. Moreover, the pIC50 was at least 7.30 in assay [6] and 7.00 to 7.30 in assay [7].

Regarding `C=CC(=O)Nc1cccc(Oc2nc(Nc3ccc(N4CCOCC4)c(F)c3)nc3ccsc23)c1` [Example 122], the results for the GI50 in assay [1], in assay [2] and in assay [5] were below 50 nM, below 50 nM and above 1000 nM, respectively. Moreover, the pIC50 in assay [3] was below 6.00; in assay [4] it was above 7.30.

Take `C=CC(=O)Nc1cccc(Oc2nc(Nc3ccc(N4CCC(CN5CCCCC5)CC4)cc3)nc3ccsc23)c1` [Example 42]: the GI50 in assay [1] was below 50 nM; in assay [2], below 50 nM; in assay [5] it was above 1000 nM. For the same molecule, the pIC50 in assay [6] was at least 7.30; in assay [7], 7.00 to 7.30.

Regarding `C=CC(=O)Nc1cccc(Oc2nc(Nc3ccc(N4CCC(N5CCCCC5)CC4)cc3)nc3ccsc23)c1` [Example 48], the GI50 in assay [1] was below 50 nM; in assay [2], below 50 nM; in assay [5], above 1000 nM. Besides, the pIC50 was 6.00 to 7.00 in assay [3], above 7.30 in assay [4], at least 7.30 in assay [6] and at least 7.30 in assay [7].

For the molecule `C=CC(=O)Nc1cccc(Oc2nc(Nc3ccc(CN4CCOCC4)cc3)nc3ccsc23)c1` [Example 187], the values for the GI50 in assay [1], in assay [2] and in assay [5] were 50 to 100 nM, below 50 nM and above 1000 nM, respectively. For the same molecule, the pIC50 in assay [6] and in assay [7] was 7.00 to 7.30 each time.

`C=CC(=O)Nc1cccc(Oc2nc(Nc3ccc(CN4CCN(CC)CC4)cc3)nc3ccsc23)c1` [Example 183]: the GI50 in assay [1] is below 50 nM; in assay [2], below 50 nM; in assay [5], above 1000 nM. Besides, the pIC50 in assay [6] and in assay [7] was 7.00 to 7.30 each time.

Consider `C=CC(=O)Nc1cccc(Oc2nc(Nc3ccc(CN4CCC(N(C)C)CC4)cc3)nc3ccsc23)c1` [Example 180], for which the GI50 is below 50 nM in assay [1], below 50 nM in assay [2] and above 1000 nM in assay [5]. Further, the pIC50 in assay [6] and in assay [7] was at least 7.30 in each case.

On to `C=CC(=O)Nc1cccc(Oc2nc(Nc3ccc(C(=O)N4CCN(CC)CC4)c(Cl)c3)nc3ccsc23)c1` [Example 203], for which the figures for the GI50 in assay [1], in assay [2] and in assay [5] were below 50 nM, below 50 nM and above 1000 nM, respectively. Moreover, the pIC50 is at least 7.30 in assay [6] and 7.00 to 7.30 in assay [7].

In the case of `C=CC(=O)Nc1cccc(Sc2nc(Nc3ccc(N4CCN(C)CC4)cc3)nc3ccsc23)c1` [Example 223, N-(3-(2-(4-(4-methylpiperazin-1-yl)phenylamino)thieno[3,2-d]pyrimidin-4-ylthio)phenyl)acrylamide], the GI50 was below 50 nM in assay [1], below 50 nM in assay [2] and above 1000 nM in assay [5]. Moreover, the pIC50 in assay [6] and in assay [7] was at least 7.30 throughout.
